Data: US10336792B2, “Antimicrobial peptide dendrimers” (priority 2014, dated 2019)
Values after ≈ are worked out from the molar mass of the structure shown. Positions of bridges follow the written chain, without caps; N, C: chain ends. Residues, ends and D or L forms follow the SMILES beside them. Groups on a side chain read outwards from the residue. Chains are numbered I, II in the order given.

Key:
[1] = tested on: Pseudomonas aeruginosa (strain PA01); format: cell-based; details: 25 μg/mL; 0, 1, 3, 6, 8, 24 h
Procedure: Cell viability was assayed against Pseudomonas aeruginosa (strain PA01). A colony of bacteria was grown in LB-medium overnight at 37° C. The concentration was quantified by measuring absorbance at 600 nm and diluted to OD600=0.1 (1×10^8 CFU/mL). The samples were prepared as stock solutions of 1 mg mL^−1 in H2O and diluted in LB to a concentration of 50 μg/mL in a 96-well microtiterplate (TPP, untreated). The sample solutions (50 μL) were mixed with the diluted bacterial suspension with an OD600 nm of 0.001 (50 μL). […] The plates were incubated at 37° C. for 1, 3, 6, 8 and 24 h. Each time point was assayed on a separate plate. For each test, two columns of the plate were kept for sterility control (SC, broth only) and growth control (GC, broth with bacterial inoculums, no antibiotics). After incubation 15 μL of WST-8 working solution (3.31 mg/mL WST-8 (Ochem Incorporation), 0.074 mg/mL PES (phenazine ethosulfate)) was added to each well and cells were incubated at 37° C. until GC had desired value. After the reaction took place, the final absorbance was read at 450 nm. For calculations, the value of the GC was set to 100% cell viability and the value of the negative control (no bacteria, SC) was set to 0% cell viability. […]
In order to determine the killing kinetics of AMPDs the amount of living bacteria was measured as a function of time after incubation with the AMPDs. […]

[2] = 5(6)-Carboxyfluorescein leakage from lipid vesicles; details: 10 mM TRIS, 107 mM NaCl, pH 7.4; peptide added at 50 s
Procedure: (§1) Preparation A thin lipid film was prepared by evaporating a solution of 25 mg Egg PC or Egg PG in 1 mL MeOH/CHCl3 1/1 on a rotary evaporator (rt) and then in vacuo overnight. The resulting film was hydrated with 1 mL buffer (50 mM CF, 10 mM TIRS, 10 mM NaCl, pH 7.4) for 30 min, subjected to freeze-thaw cycles (7×) and extrusion (15×) through a polycarbonate membrane (pore size 100 nm). Extravesicular components were removed by gel filtration (Sephadex G-50) with 10 mM TRIS, 107 mM NaCl, pH 7.4. Final conditions: ˜2.5 mM Egg PC or Egg PG; inside: 50 mM CF, 10 mM TIRS, 10 mM NaCl, pH 7.4; outside: 10 mM TRIS, 107 mM NaCl, pH 7.4.
(§2) Experiment Egg PC or Egg PG stock solutions (37.5 μL) were diluted with a buffer (10 mM TRIS, 107 mM NaCl, pH 7.4) and placed in a thermostated fluorescence cuvette (25° C.) and gently stirred (total volume in the cuvette ˜3000 μL; final lipid concentration ˜31.25 μM). CF efflux was monitored at λem 517 nm (λex 492 nm) as a function of time after addition of 20 μL of peptide dendrimer in buffer (10 mM TRIS, 107 mM NaCl, pH 7.4) with final concentrations of 1, 5, 7.5, 10, 15, 20, 25, 30 μg/mL at t=50 s and 1.2% trition X-100 (30 μL, 0.012% final concentration) at t=300 s. Fluorescence intensities were normalized to fractional emission intensity I(t) using I(t)=(It−I0)/(I∞−I0) where I0 It at peptide dendrimer addition, I∞=It at saturation of lysis.

[3] = as above; details: 10 mM TRIS, 107 mM NaCl, pH 7.4; peptide added at 50 s; remark: listed apart in the source
Procedure: as §1, §2
Bacterial membranes contain relatively large amounts of exposed anionic lipids, while the outer leaflet of the membranes of plants and animals is composed mainly of lipids with no net charge. The charge composition of such membranes can be mimicked with phospholipid vesicles. Large unilamellar vesicles (LUVs) composed of the neutral phospholipid with PC (phosphatidyl choline) or with PG (phosphatidyl glycerol) with negative charges were prepared encapsulating 5(6)-carboxyfluorescein (CF). […] The higher the concentration of MSt-112 the higher is the CF leakage (FIG. 6A). […] Overall the active AMPDs interact with the negatively charged membrane and release the CF.

[4] = tested on: Pseudomonas aeruginosa (strain PA01); experiment: microbe, parasite or virus in culture; format: cell-based
In short: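 Broth microdilution MIC against P. aeruginosa PAO1 in LB: peptides serially diluted by ⅔, bacteria added at OD600 0.001 and incubated 18–24 h at 37 °C. MTT added; MIC is the lowest concentration preventing visible growth.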

[5] = tested on: P. aeruginosa PEJ2.6, PEJ9.1, ZEM1.A, ZEM9.A (clinical isolates); format: cell-based, Pseudomonas aeruginosa; details: PEJ2.6, PEJ9.1, ZEM1.A, ZEM9.A (clinical isolates)
Procedure: (§3) Antimicrobial activity was assayed against P. aeruginosa PA01 (WT), P. aeruginosa PT1482 (A-), PT1485 (A-B-), PT1149 (A-B-C-algC), PT331 (Z61) (LPS mutants), P. aeruginosa PEJ2.6, PEJ9.1, ZEM1.A, ZEM9.A (clinical isolates from Université de Genève/Centre Médical Universitaire), Burkholderia cenocepacia (B. ceno), Staphylococcus aureus (S. aureus, MRSA strain) and Acinetobacter baumannii (A. baum) (clinical isolates from Université de Genève/Centre Médical Universitaire). To determine the minimal inhibitory concentration (MIC), microdilution broth method was used. A colony of bacteria was grown in MH-medium overnight at 37° C. The samples were prepared as stock solutions of 8 mg mL^−1 in H2O, diluted to the beginning concentration of 32, 64, 128 or 256 μg/mL in 300 μL MH-medium, added to the first well of 96-well microtiterplate (TPP, untreated) and diluted serially by ½. The concentration of the bacteria was quantified by measuring absorbance at 600 nm and diluted to OD600=0.022 in MH-medium. The sample solutions (150 μL) were mixed with 4 μL diluted bacterial suspension with a final inoculation of about of 5×10^5 CFU. The plates were incubated at 37° C. until satisfactory growth (˜18 h). For each test, two columns of the plate were kept for sterility control (SC, broth only) and growth control (GC, broth with bacterial inoculums, no antibiotics). The minimal inhibitory concentration (MIC) was defined as the lowest concentration of the antimicrobial substance (peptide dendrimer) that inhibited visible growth of the tested bacteria with the unaided eye. For microbiological study Polymyxin was used as references.
Ten of the most promising compounds (FIG. 5) were tested for their efficiency against four clinical isolates of P. aeruginosa (ZEM9.A, ZEM1.A, PEJ2.6, PEJ9.1), one S. aureus (COL, MRSA reference strain) and one A. baumannii strain. For the experiments in Genève the peptide dendrimers and reference compounds (polymyxin) were dissolved in PBS and the assay was carried out in Müller-Hinton (MH) broth with a two-fold dilution.

[6] = tested on: male wistar rats; experiment: In-vivo toxicity study, single i.v. injection; set-up: species or system rat
From the text: 4-6 weeks old male wistar rats (weight range 200-500 g) were used in toxicity experiments. Rats were obtained from Zentrale Tierställe Bern (Department of Clinical Research from University of Bern) and housed 4 per cage. Each experimental group includes two rats. All procedures, care and handling of the animals were reviewed and approved by the Veterinärdienst of Kanton Bern, Schweiz and execute in collaboration with the group of Prof. Hugues Abriel from Department of Clinical Research from University of Bern.
Rats were anesthetized with 4% isoflurane and 1 L/min oxygen in an induction chamber. When the rats were sleeping they were transferred on a clinical drape and anesthetized with 1-2% isoflurane and 0.8 l/min oxygen via a mask. The tail was warmed up with warm water and disinfected with 70% ethanol. The intravenous (i.v.) injections into the tail vein included a single dose of the AMPD of 2 mg/kg rat in 500 μL PBS. Before injection each rat was weighted individually and the exact dosage was determined. All rats, including control groups with no injection and i.v. injection of 500 μL PBS, were monitored for their survival and behavior for two days.
The compounds MSt-112, a 3rd generation AMPD with KL motive, MSt-181 its D-enantiomer analogue, MSt-242, a the 3rd generation with RL motive, and MSt-114 with Tyr instead of Lys in the 3rd generation were used for in vivo experiments with male wistar rats to assess their toxicity. These compounds were selected due to their high potencies and high MHCs values, which are at least 10 times higher than their activities. Each compound (concentration of 2 mg/kg) was applied to two rats by intravenous injection into the tail vein to observe if the AMPDs are well tolerated or may cause adverse effects. The concentration used was approx. 5-10 times higher than the MICs. […] The behaviour of the rats was normal. […] Therefore it seems that rats tolerate AMPDs very well, without visible site effects or even casualties.

[7] = tested on: Escherichia coli (strain DH5α); format: cell-based; details: DH5α
In short: (§4)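 Broth microdilution MIC in LB; overnight cultures diluted to OD600 0.001 and mixed 1:1 with ⅔-serially diluted samples (stock 1 mg mL^−1 in H2O), 37° C for 18-24 h. MTT (0.1%) added; MIC read by eye as lowest concentration inhibiting visible growth (yellow).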

[8] = tested on: Bacillus subtilis (strain BR151); format: cell-based; details: strain BR151
In short: as §4

[9] = tested on: Staphylococcus aureus (COL, MRSA reference strain); format: cell-based; details: COL, reference strain
In short: (§5)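 Broth microdilution in Müller-Hinton medium, two-fold serial dilutions from a starting 32–256 μg/mL, compounds dissolved in PBS; inoculum about 5×10^5 CFU, incubated 37° C ~18 h. MIC taken as lowest concentration with no visible growth by eye; polymyxin as reference.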

[10] = tested on: Acinetobacter baumannii; format: cell-based
In short: as §5

[11] = tested on: P. aeruginosa PA01 (WT); format: cell-based, Pseudomonas aeruginosa; details: WT
Procedure: as §3

[12] = tested on: P. aeruginosa PT1482 (A-), PT1485 (A-B-), PT1149 (A-B-C-algC), PT331 (Z61) (LPS mutants); format: cell-based, Pseudomonas aeruginosa; details: MH medium, 12-18 h
Procedure: as §3

SMILES	killing kinetics (bacterial survival over 24 hours) [1]	CF leakage from phosphatidylcholine LUVs [2]	CF leakage from phosphatidylglycerol LUVs [3]	MIC ([4]; Pseudomonas aeruginosa, PAO1, LB medium, serial 2/3 dilution, 37 °C, 18-24 h, read-out: MIC P. aeruginosa PAO1) [µg/mL]	MIC P. aeruginosa MDR clinical isolate PEJ2.6 [5] [µg/mL]	MIC P. aeruginosa MDR clinical isolate PEJ9.1 [5] [µg/mL]	MIC P. aeruginosa MDR clinical isolate ZEM1A [5] [µg/mL]	MIC P. aeruginosa MDR clinical isolate ZEM9A [5] [µg/mL]	visible effects and behaviour after injection ([6]; 2 mg/kg single i.v. dose into tail vein, two rats)	survival rate ([6]; 2 mg/kg single i.v. dose, monitored 2 days) [%]	MIC E. coli DH5α [7] [µg/mL]	MIC B. subtilis BR151 [8] [µg/mL]	MIC S. aureus COL [9] [µg/mL]	MIC A. baumannii ATCC19606 [10] [µg/mL]	MIC P. aeruginosa PAO1 ([4]; strain) [µg/mL]	MIC (MH) [11] [µg/mL]	MIC PAO1 [11] [µg/mL]	MIC PT1482 (A-) [12] [µg/mL]	MIC PT1485 (AB-) [12] [µg/mL]
NC[C@H]1O[C@H](O[C@H]2[C@H](O)[C@@H](O[C@H]3O[C@H](CO)[C@@H](O)[C@H](N)[C@H]3O)[C@H](N)C[C@@H]2N)[C@H](N)C[C@@H]1O [Tobramycin]	kill P. aeruginosa immediately	no CF release	do not show release of CF	0.5 (≈ 1.07 µM)	–	–	–	–	–	–	–	–	–	–	–	–	–	–	–
CC(C)C[C@H](NC(=O)[C@H](CCCCN)NC(=O)[C@H](CCCCNC(=O)[C@H](CC(C)C)NC(=O)[C@H](CCCCN)NC(=O)[C@H](CCCCNC(=O)[C@H](CC(C)C)NC(=O)[C@H](CCCCN)NC(=O)[C@H](CCCCNC(=O)[C@H](CC(C)C)NC(=O)[C@@H](N)CCCCN)NC(=O)[C@H](CC(C)C)NC(=O)[C@@H](N)CCCCN)NC(=O)[C@H](CC(C)C)NC(=O)[C@H](CCCCN)NC(=O)[C@H](CCCCNC(=O)[C@H](CC(C)C)NC(=O)[C@@H](N)CCCCN)NC(=O)[C@H](CC(C)C)NC(=O)[C@@H](N)CCCCN)NC(=O)[C@H](CC(C)C)NC(=O)[C@H](CCCCN)NC(=O)[C@H](CCCCNC(=O)[C@H](CC(C)C)NC(=O)[C@H](CCCCN)NC(=O)[C@H](CCCCNC(=O)[C@H](CC(C)C)NC(=O)[C@@H](N)CCCCN)NC(=O)[C@H](CC(C)C)NC(=O)[C@@H](N)CCCCN)NC(=O)[C@H](CC(C)C)NC(=O)[C@H](CCCCN)NC(=O)[C@H](CCCCNC(=O)[C@H](CC(C)C)NC(=O)[C@@H](N)CCCCN)NC(=O)[C@H](CC(C)C)NC(=O)[C@@H](N)CCCCN)C(N)=O [MSt-112, (KL)8(KKL)4(KKL)2(KKL)] (I: H-KLK([Leu-Lys])KLKKLKKL-NH2 / II: H-KLK([Leu-Lys])KLKKL / III: H-KLK([Leu-Lys])KL / IV: H-KLK([Leu-Lys])KL; amide I:6-IV:C, I:9-II:C, II:6-III:C)	–	–	–	–	16 (≈ 3.53 µM)	64 (≈ 14.1 µM)	4 (≈ 0.882 µM)	32 to 64	No visible effect	100	4 (≈ 0.882 µM)	3 (≈ 0.662 µM)	>64	8 to 16	2 (≈ 0.441 µM)	4 (≈ 0.882 µM)	4 (≈ 0.882 µM)	4 (≈ 0.882 µM)	4 (≈ 0.882 µM)
